PubChem BioAssay AID248 (DTP/NCI, 2004)
Several values for one entry are separate records, joined by “and”; a condition that tells them apart may be missing. Equal entries are not always repeated. Toxic doses and inconclusive results are not listed. Rule as the data show it: active = T/C of 150% or more; inactive = T/C below 125%.

System: L1210 leukemia ip in BDF1 mice, survival T/C
Experiment: NCI In Vivo Anticancer Drug Screen. Data for tumor model L1210 Leukemia (intraperitoneal) in B6D2F1 (BDF1) mice
Details: endpoint: mean survival time, higher = longer survival
Procedure, shortened: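 Survival endpoint. Drug-treated group vs vehicle group, expressed as T divided by C. Tumor passaged by transplantation.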

[1] = dose: 50.0 mg/kg/injection, schedule: Q01DX001 (ip), vehicle: carboxymethylcellulose (CMC)
[2] = dose: 100.0 mg/kg/injection, schedule: Q01DX001 (ip), vehicle: carboxymethylcellulose (CMC)
[3] = dose: 200.0 mg/kg/injection, schedule: Q01DX001 (ip), vehicle: carboxymethylcellulose (CMC)
[4] = dose: 400.0 mg/kg/injection, schedule: Q01DX001 (ip), vehicle: carboxymethylcellulose (CMC)
[5] = dose: 100.0 mg/kg/injection, schedule: Q01DX001 (ip), vehicle: saline
[6] = dose: 100.0 mg/kg/injection, schedule: Q01DX009 (ip), vehicle: Klucel (hydroxypropylcellulose) (HPC)
[7] = dose: 100.0 mg/kg/injection, schedule: Q04DX003 (ip), vehicle: Klucel (hydroxypropylcellulose) (HPC)
[8] = dose: 200.0 mg/kg/injection, schedule: Q01DX001 (ip), vehicle: saline
[9] = dose: 200.0 mg/kg/injection, schedule: Q01DX009 (ip), vehicle: Klucel (hydroxypropylcellulose) (HPC)
[10] = dose: 200.0 mg/kg/injection, schedule: Q04DX003 (ip), vehicle: Klucel (hydroxypropylcellulose) (HPC)
[11] = dose: 400.0 mg/kg/injection, schedule: Q01DX001 (ip), vehicle: saline
[12] = dose: 400.0 mg/kg/injection, schedule: Q01DX009 (ip), vehicle: Klucel (hydroxypropylcellulose) (HPC)
[13] = dose: 400.0 mg/kg/injection, schedule: Q04DX003 (ip), vehicle: Klucel (hydroxypropylcellulose) (HPC)
[14] = dose: 3.12 mg/kg/injection, schedule: Q01DX009 (ip), vehicle: saline
[15] = dose: 6.25 mg/kg/injection, schedule: Q01DX009 (ip), vehicle: saline
[16] = dose: 100.0 mg/kg/injection, schedule: Q04DX003 (ip), vehicle: saline with Tween-80
[17] = dose: 200.0 mg/kg/injection, schedule: Q04DX003 (ip), vehicle: saline with Tween-80
[18] = dose: 400.0 mg/kg/injection, schedule: Q04DX003 (ip), vehicle: saline with Tween-80
[19] = dose: 25.0 mg/kg/injection, schedule: Q01DX009 (ip), vehicle: saline with Tween-80
[20] = dose: 100.0 mg/kg/injection, schedule: Q01DX009 (ip), vehicle: saline with Tween-80
[21] = dose: 100.0 mg/kg/injection, schedule: Q04DX003 (ip), vehicle: saline
[22] = dose: 200.0 mg/kg/injection, schedule: Q04DX003 (ip), vehicle: saline
[23] = dose: 400.0 mg/kg/injection, schedule: Q04DX003 (ip), vehicle: saline

Measured: T/C

OCC1OC(n2cc(Br)c3c(Cl)ncnc32)C(O)C1O (stereo not drawn)
inactive: [1] 117 % of control | [2] 87 % of control | [3] 93 % of control | [4] 112 % of control

CCOC(=O)C(C)N(c1ccccc1)S(=O)(=O)c1ccc(C)cc1 (stereo not drawn)
inactive: [2] 103 % of control | [3] 110 % of control | [4] 113 % of control

O=C(NCCCNC(=O)Nc1ccc(C2=NCC(O)CN2)cc1)Nc1ccc(C2=NCC(O)CN2)cc1 (stereo not drawn)
inactive: dose: 30.7 mg/kg/injection, schedule: Q01DX015 (ip), vehicle: methylcellulose (MC) 104 % of control | dose: 61.5 mg/kg/injection, schedule: Q01DX015 (ip), vehicle: methylcellulose (MC) 95 % of control

c1ccc(-c2cnnn2-c2ccccc2)cc1
inactive: dose: 100.0 mg/kg/injection, schedule: Q01DX001 (ip), vehicle: saline with Tween-80 105 % of control | dose: 200.0 mg/kg/injection, schedule: Q01DX001 (ip), vehicle: saline with Tween-80 100 % of control | dose: 400.0 mg/kg/injection, schedule: Q01DX001 (ip), vehicle: saline with Tween-80 105 % of control

CC(C)CCC[C@@H](C)[C@H]1CC[C@H]2[C@@H]3CC=C4C[C@@H](O)CC[C@]4(C)[C@H]3CC[C@]12C
inactive: [5] 92 % of control | [6] 94 % of control | [7] 97 % of control | [8] 95 % of control | [9] 91 % of control | [10] 89 % of control | [11] 92 % of control | [12] 92 % of control | [13] 94 % of control

NC(=O)c1ccc[n+](Cc2c(Cl)cccc2Cl)c1
inactive: dose: 1.56 mg/kg/injection, schedule: Q01DX009 (ip), vehicle: saline 111 % of control | [14] 122 % of control | [15] 122 % of control

C[Se]c1ncnc2c(C3OC(CO)C(O)C3O)[nH]nc12 (stereo not drawn)
inactive: dose: 3.12 mg/kg/injection, schedule: Q01DX005 (ip), vehicle: saline 106 % of control | [14] 112 % of control | dose: 6.25 mg/kg/injection, schedule: Q01DX005 (ip), vehicle: saline 109 % of control | [15] 94 % of control | dose: 12.5 mg/kg/injection, schedule: Q01DX005 (ip), vehicle: saline 104 % of control | dose: 12.5 mg/kg/injection, schedule: Q01DX009 (ip), vehicle: saline 91 % of control

CC(=O)OC1C(C=C(C)C)OC2CC3(C)C4=C(CCC3(C)C2C1C)C1(C)CCC(O)C(C)(C)C1CC4 (stereo not drawn)
inactive: dose: 20.0 mg/kg/injection, schedule: Q01DX001 (sc), vehicle: steriod suspending solution 104 % of control | dose: 40.0 mg/kg/injection, schedule: Q01DX001 (sc), vehicle: steriod suspending solution 102 % of control | dose: 50.0 mg/kg/injection, schedule: Q01DX001 (sc), vehicle: steriod suspending solution 101 % of control | dose: 80.0 mg/kg/injection, schedule: Q01DX001 (sc), vehicle: steriod suspending solution 102 % of control | dose: 100.0 mg/kg/injection, schedule: Q01DX001 (sc), vehicle: steriod suspending solution 92 % of control | dose: 160.0 mg/kg/injection, schedule: Q01DX001 (sc), vehicle: steriod suspending solution 102 % of control | dose: 200.0 mg/kg/injection, schedule: Q01DX001 (sc), vehicle: steriod suspending solution 97 % of control | dose: 400.0 mg/kg/injection, schedule: Q01DX001 (sc), vehicle: steriod suspending solution 106 % of control

CC(=O)c1ccc2c(c1)CCN2
inactive: [6] 91 % of control | [9] 91 % of control

CCCCCCCCCCCCCCCC[N+]1(C)CCC[N+](C)(CCCCCCCCCCCCCCCC)CC1 (stereo not drawn)
inactive: dose: 100.0 mg/kg/injection, schedule: Q01DX001 (ip), vehicle: other 111 % of control and 90 % of control | dose: 100.0 mg/kg/injection, schedule: Q04DX002 (ip), vehicle: other 94 % of control and 106 % of control | dose: 200.0 mg/kg/injection, schedule: Q01DX001 (ip), vehicle: other 96 % of control and 90 % of control | dose: 200.0 mg/kg/injection, schedule: Q04DX002 (ip), vehicle: other 97 % of control and 110 % of control | dose: 400.0 mg/kg/injection, schedule: Q01DX001 (ip), vehicle: other 96 % of control and 90 % of control | dose: 400.0 mg/kg/injection, schedule: Q04DX002 (ip), vehicle: other 98 % of control and 106 % of control

CCOC(=O)/C(=N\O)C(C)(C)c1ccnc2ccccc12
inactive: [16] 86 % of control | [17] 88 % of control | [18] 95 % of control

O=C(O)CCC(=O)c1ccc(Cl)cc1
inactive: dose: 6.25 mg/kg/injection, schedule: Q01DX009 (ip), vehicle: saline with Tween-80 88 % of control | dose: 12.5 mg/kg/injection, schedule: Q01DX009 (ip), vehicle: saline with Tween-80 90 % of control | [19] 97 % of control

Oc1ccccc1-c1nc2ccccc2[nH]1
inactive: dose: 100.0 mg/kg/injection, schedule: Q04DX002 (ip), vehicle: Klucel (hydroxypropylcellulose) (HPC) 109 % of control | dose: 200.0 mg/kg/injection, schedule: Q04DX002 (ip), vehicle: Klucel (hydroxypropylcellulose) (HPC) 98 % of control | dose: 400.0 mg/kg/injection, schedule: Q04DX002 (ip), vehicle: Klucel (hydroxypropylcellulose) (HPC) 95 % of control

Cc1ccc(Cl)cc1NC(=O)OCCCl
inactive: [20] 95 % of control | [21] 97 % of control | dose: 200.0 mg/kg/injection, schedule: Q01DX009 (ip), vehicle: saline with Tween-80 91 % of control | [22] 100 % of control | dose: 400.0 mg/kg/injection, schedule: Q01DX009 (ip), vehicle: saline with Tween-80 91 % of control | [23] 95 % of control

COC(=O)c1ccc(Cl)cc1[N+](=O)[O-]
inactive: dose: 100.0 mg/kg/injection, schedule: Q01DX009 (ip), vehicle: saline 101 % of control | dose: 200.0 mg/kg/injection, schedule: Q01DX009 (ip), vehicle: saline 100 % of control | dose: 400.0 mg/kg/injection, schedule: Q01DX009 (ip), vehicle: saline 100 % of control

CCOC(=O)C(CC)(CCC(C)C)C(=O)OCC
inactive: [19] 97 % of control | dose: 50.0 mg/kg/injection, schedule: Q01DX009 (ip), vehicle: saline with Tween-80 92 % of control | [20] 95 % of control | [21] 95 % of control | [22] 95 % of control | [23] 95 % of control

CN=C(N)N
inactive: [16] 102 % of control | [17] 101 % of control | [18] 103 % of control

O=Cc1cc(=O)[nH]c(NC(=O)C(Cl)Cl)n1
inactive: [5] 101 % of control | [8] 104 % of control | [11] 89 % of control

O=C(NCCCCNC(=O)Nc1cccc(C2=NCCCN2)c1)Nc1cccc(C2=NCCCN2)c1
inactive: dose: 0.65 mg/kg/injection, schedule: Q01DX Z (ip), vehicle: carboxymethylcellulose (CMC) 97 % of control | dose: 1.3 mg/kg/injection, schedule: Q01DX Z (ip), vehicle: carboxymethylcellulose (CMC) 97 % of control

O=C(OC1COC(Br)C(OC(=O)c2ccccc2)C1OC(=O)c1ccccc1)c1ccccc1 (stereo not drawn)
inactive: [1] 90 % of control | [2] 95 % of control and 97 % of control | [6] 97 % of control | [7] 106 % of control | [3] 93 % of control and 94 % of control | [9] 103 % of control | [10] 104 % of control | [4] 98 % of control and 94 % of control | [12] 98 % of control | [13] 98 % of control
